Measured values as given in patent US20120016000A1, “METHOD TO ASSAY PHOSPHOLIPID AND TRIGLYCERIDE TRANSFER ACTIVITY OF MICROSOMAL TRIGLYCERIDE TRANSFER PROTEIN” (priority 2010, published 2012).
Values belong to the compound of their own block, whether it stands above or below them.

Key:
[1] = in vivo; cited from earlier work
[2] = guinea pigs; cited from earlier work
[3] = target: T1, purified bovine liver MTP (Bos taurus, UniProt P55156); experiment: Fluorescence phospholipid (NBD-PE) transfer activity assay of MTP; type: biochemical; conditions: dose-dependent inhibition, FIG. 5B
T1 construct: purified bovine liver MTP; from tissue; host or cells: bovine liver
T1 sequence (P55156 19-887 limits assumed): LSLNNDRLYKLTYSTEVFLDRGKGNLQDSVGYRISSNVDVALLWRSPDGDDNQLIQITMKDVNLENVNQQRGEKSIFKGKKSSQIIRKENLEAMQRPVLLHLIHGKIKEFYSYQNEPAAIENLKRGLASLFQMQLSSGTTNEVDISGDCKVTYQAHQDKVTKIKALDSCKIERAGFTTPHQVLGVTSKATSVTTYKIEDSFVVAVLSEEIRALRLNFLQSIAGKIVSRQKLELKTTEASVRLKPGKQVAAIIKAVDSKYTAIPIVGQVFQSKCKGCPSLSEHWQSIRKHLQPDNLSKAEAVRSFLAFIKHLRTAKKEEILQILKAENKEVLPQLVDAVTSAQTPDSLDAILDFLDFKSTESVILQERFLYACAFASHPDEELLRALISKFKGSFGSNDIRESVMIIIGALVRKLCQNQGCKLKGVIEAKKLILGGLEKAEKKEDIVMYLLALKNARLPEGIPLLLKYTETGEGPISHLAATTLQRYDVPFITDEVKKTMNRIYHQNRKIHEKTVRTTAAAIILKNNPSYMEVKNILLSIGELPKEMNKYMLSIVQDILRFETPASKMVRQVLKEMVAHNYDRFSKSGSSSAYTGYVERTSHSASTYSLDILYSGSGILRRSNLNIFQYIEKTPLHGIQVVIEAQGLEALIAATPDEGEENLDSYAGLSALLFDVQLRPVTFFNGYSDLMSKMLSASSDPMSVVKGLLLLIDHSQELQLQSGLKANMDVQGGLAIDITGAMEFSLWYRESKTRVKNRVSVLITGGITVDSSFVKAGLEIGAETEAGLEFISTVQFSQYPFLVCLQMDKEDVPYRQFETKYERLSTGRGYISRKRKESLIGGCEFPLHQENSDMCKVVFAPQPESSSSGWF
T1 sequence (P05307 21-510 partner): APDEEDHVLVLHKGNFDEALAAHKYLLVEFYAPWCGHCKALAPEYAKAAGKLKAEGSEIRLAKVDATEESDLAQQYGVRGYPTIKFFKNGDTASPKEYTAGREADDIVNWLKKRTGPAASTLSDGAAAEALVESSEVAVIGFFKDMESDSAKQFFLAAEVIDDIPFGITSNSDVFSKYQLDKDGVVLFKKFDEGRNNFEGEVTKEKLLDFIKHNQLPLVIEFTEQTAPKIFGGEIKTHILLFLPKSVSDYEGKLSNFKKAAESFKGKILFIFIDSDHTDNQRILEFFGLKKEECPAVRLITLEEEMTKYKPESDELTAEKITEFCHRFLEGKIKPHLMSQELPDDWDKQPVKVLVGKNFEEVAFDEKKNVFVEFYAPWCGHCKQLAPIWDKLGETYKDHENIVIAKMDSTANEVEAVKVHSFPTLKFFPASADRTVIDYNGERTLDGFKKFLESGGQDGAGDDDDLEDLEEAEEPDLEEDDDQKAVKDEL
Text: (§1) The present invention is directed to very selective, simple, rapid and sensitive fluorescence assays to measure triglyceride (NBD-TG) and phospholipid (NBD-PE) transfer by MTP. These assays have been modified and developed into a “mix and measure” format kit that is stable, user friendly, and consists of only two components: a master mix and purified MTP. The master mix contains all the ingredients necessary for MTP activity. In this assay, MTP transfers fluorescent lipids from donor to acceptor vesicles. Lipid fluorescence in these vesicles is mostly quenched. Unquenched fluorescence (˜0.05% of total fluorescence) is measured as background. During the transfer of fluorescent lipids by MTP, fluorescence is exposed to aqueous phase and detected by the Fluorimeter. These fluorescence measurements represent the amount being transferred. Inclusion of antagonist during these assays reduces increases in fluorescence and represents inhibition of the transfer activity. […]
(§2) Increasing amounts of DMSO (0-1%) had no significant effect on both triglyceride (FIG. 3A) and phospholipid (FIG. 3B) transfer activities of MTP. […] Evaluation of signal-to-noise ratio of assay across the entire 96-well plate: Fluorescence in the blank (n=48) and MTP (n=48) was used to determine the values of noise and signal, respectively. […]

[4] = target: T1, purified bovine liver MTP; experiment: Fluorescence triglyceride (NBD-TG) transfer activity assay of MTP; type: biochemical; conditions: dose-dependent inhibition, FIG. 5A
Text: as §1, §2

Compound: COc1cccc(C(=O)Nc2ccc3c(c2)CCN(C(=O)Oc2ccccc2)C3)c1-c1ccc(C(F)(F)F)cc1 [SLx-4090]
plasma lipids [1]: lower plasma lipids

Compound: CCOC(=O)C(COC(=O)Cc1ccc(NC(=O)c2ccccc2-c2ccc(C(F)(F)F)cc2)c(C(=O)N(C)C)c1)(C(=O)OCC)c1ccccc1 [JTT-130]
hepatic triglyceride [2]: without increasing hepatic triglyceride | plasma triglyceride and LDL cholesterol [2]: lower plasma triglyceride and LDL cholesterol

IC50 [3]: 9.4 nM | IC50 [4]: 0.33 nM
Compound: O=C(Nc1ccc2c(c1)CCN(Cc1ncn[nH]1)C2)c1ccccc1-c1ccc(C(F)(F)F)cc1 [CP-346086]
